Laboratory results: US10590128B2, “6,7,8,9-tetrahydro-5H-pyrido[2,3-d]azepine dopamine D3 ligands” (Pfizer Inc., priority 2016, dated 2020)

Columns and labels:
[1] = biological target: human dopamine D2 receptor (hD2R) (Homo sapiens, UniProt P14416); test: Human D2 receptor binding assay ([^3H]-Spiperone); conditions: CHO cells expressing hD2R, geometric mean of 2-5 determinations unless marked b (single determination)
Description: (§1) Human D2 Receptor and Human D3 Receptor Binding Assays:
(§2) These determined ligand and tissue concentrations were utilized in time course studies to determine linearity and equilibrium conditions for binding. […] The hD2R assay buffer contains 50 mM Tris (pH 7.4 @ 37° C.), 100 mM NaCl and 1 mM MgCl2. The hD3R assay buffer consists of 50 mM Tris (pH 7.4 at 37° C.), 120 mM NaCl, 5 mM MgCl2, 5 mM KCl and 2 mM CaCl2. Competitive binding experiments were initiated by the addition of 200 μL of the respective cell homogenate to 96-well plates containing […] test drugs (10 concentrations using ½ log dilutions) and 50 μL of ^3H-radioligand for a final volume of 250 μL. Non-specific binding was determined by radioligand binding in the presence of a saturating concentration of Haldol (10 μM). After the 20 minute incubation at 37° C., assay samples were rapidly filtered through Unifilter-96 GF/B PEI-coated filter plates and rinsed with ice-cold 50 mM Tris buffer (pH 7.4 at 4° C.). […] The IC50 value (concentration at which 50% inhibition of specific binding occurs) was calculated by linear regression of the concentration-response data in ActivityBase. Ki values were then calculated according to the Cheng-Prusoff equation:
(§3) [formula] where [L]=concentration of free radioligand and Kd=dissociation constant of radioligand for D3 receptor or D2 receptor.

[2] = biological target: human dopamine D3 receptor (hD3R) (Homo sapiens, UniProt P35462); test: Human D3 receptor binding assay ([^3H]-7-OH-DPAT); conditions: CHO cells expressing hD3R, geometric mean of 2-5 determinations unless marked b (single determination), read-out: hD3 in CHO cells Ki
Description: as §1, §2, §3

human dopamine D3 receptor (hD3R), sequence (P35462 whole entry): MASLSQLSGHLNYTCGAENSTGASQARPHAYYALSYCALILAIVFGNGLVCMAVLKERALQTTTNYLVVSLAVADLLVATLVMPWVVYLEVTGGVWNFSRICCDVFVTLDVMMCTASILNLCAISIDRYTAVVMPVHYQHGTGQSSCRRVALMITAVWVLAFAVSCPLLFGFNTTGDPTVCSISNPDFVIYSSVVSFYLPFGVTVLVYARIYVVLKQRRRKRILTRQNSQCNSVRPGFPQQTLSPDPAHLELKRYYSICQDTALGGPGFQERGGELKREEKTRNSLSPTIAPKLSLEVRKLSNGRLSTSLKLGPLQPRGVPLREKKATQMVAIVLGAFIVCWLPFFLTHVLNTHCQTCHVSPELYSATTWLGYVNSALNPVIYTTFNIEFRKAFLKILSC
human dopamine D2 receptor (hD2R), sequence (P14416 whole entry): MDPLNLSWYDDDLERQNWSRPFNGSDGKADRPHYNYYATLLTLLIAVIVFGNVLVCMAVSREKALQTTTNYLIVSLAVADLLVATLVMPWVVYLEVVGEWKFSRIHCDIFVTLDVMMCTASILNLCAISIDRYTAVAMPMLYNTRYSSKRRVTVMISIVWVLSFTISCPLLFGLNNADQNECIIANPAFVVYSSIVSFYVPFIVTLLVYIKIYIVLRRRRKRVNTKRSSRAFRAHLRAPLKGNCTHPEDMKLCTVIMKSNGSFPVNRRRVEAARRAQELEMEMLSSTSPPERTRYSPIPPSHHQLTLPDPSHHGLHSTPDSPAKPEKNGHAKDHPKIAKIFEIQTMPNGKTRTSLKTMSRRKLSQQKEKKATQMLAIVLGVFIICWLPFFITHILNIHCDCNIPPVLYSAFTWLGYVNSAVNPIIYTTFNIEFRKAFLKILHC

| SMILES | Ki [1] [nM] | Ki [2] [nM] |
| --- | --- | --- |
| COc1nc2c(cc1NS(=O)(=O)c1cnc(C3CCC3)c(F)c1)CCN(C)CC2 [Example 24, 6-cyclobutyl-5-fluoro-N-(2-methoxy-7-methyl-6,7,8,9-tetrahydro-5H-pyrido[2,3-d]azepin-3-yl)pyridine-3-sulfonamide] | 232 | 4.2 |
| COc1nc2c(cc1NS(=O)(=O)c1ccc([C@]3(F)C[C@@H](C)C3)nc1)CCN(C)CC2 [Example 25, 6-(cis-1-fluoro-3-methylcyclobutyl)-N-(2-methoxy-7-methyl-6,7,8,9-tetrahydro-5H-pyrido[2,3-d]azepin-3-yl)pyridine-3-sulfonamide] | 542 | 5.07 |
| CCCN1CCc2cc(NS(=O)(=O)c3ccc(C)cc3)c(OC)nc2CC1 [Example 26, N-(2-methoxy-7-propyl-6,7,8,9-tetrahydro-5H-pyrido[2,3-d]azepin-3-yl)-4-methylbenzenesulfonamide] | 522 | 2.43 |
| COc1nc2c(cc1NS(=O)(=O)c1ccc(Cl)cc1)CCN(C)CC2 [Example 27, 4-chloro-N-(2-methoxy-7-methyl-6,7,8,9-tetrahydro-5H-pyrido[2,3-d]azepin-3-yl)benzenesulfonamide] | 400 | 3.26 |
| CCOc1ccc(S(=O)(=O)Nc2cc3c(nc2OC)CCN(C)CC3)cc1 [Example 28, 4-ethoxy-N-(2-methoxy-7-methyl-6,7,8,9-tetrahydro-5H-pyrido[2,3-d]azepin-3-yl)benzenesulfonamide] | 124 | 2.33 |
| CCOc1ccc(S(=O)(=O)Nc2cc3c(nc2OC)CCN(CCOC)CC3)cc1 [Example 29, 4-ethoxy-N-[2-methoxy-7-(2-methoxyethyl)-6,7,8,9-tetrahydro-5H-pyrido[2,3-d]azepin-3-yl]benzenesulfonamide] | 1070 | 11.1 |
| CCN1CCc2cc(NS(=O)(=O)c3ccc(C4CC4)cc3)c(OC)nc2CC1 [Example 30, 4-cyclopropyl-N-(7-ethyl-2-methoxy-6,7,8,9-tetrahydro-5H-pyrido[2,3-d]azepin-3-yl)benzenesulfonamide] | 55 | 0.89 |
| COc1nc2c(cc1NS(=O)(=O)c1ccc3c(c1)CCCO3)CCN(C)CC2 [Example 31, N-(2-methoxy-7-methyl-6,7,8,9-tetrahydro-5H-pyrido[2,3-d]azepin-3-yl)-3,4-dihydro-2H-chromene-6-sulfonamide] | 564 | 1.24 |
| COc1nc2c(cc1NS(=O)(=O)c1ccc(C(C)OC)cc1)CCN(C)CC2 (stereo not shown) [Example 32, 4-(1-methoxyethyl)-N-(2-methoxy-7-methyl-6,7,8,9-tetrahydro-5H-pyrido[2,3-d]azepin-3-yl)benzenesulfonamide] | 204 | 1.05 |
| COc1nc2c(cc1NS(=O)(=O)c1ccc3c(c1)CC(C)(C)O3)CCN(C)CC2 [Example 34, N-(2-methoxy-7-methyl-6,7,8,9-tetrahydro-5H-pyrido[2,3-d]azepin-3-yl)-2,2-dimethyl-2,3-dihydro-1-benzofuran-5-sulfonamide] | 26.3 | 0.65 |
| CCN1CCc2cc(NS(=O)(=O)c3ccc(C)c(F)c3)c(OC)nc2CC1 [Example 35, N-(7-ethyl-2-methoxy-6,7,8,9-tetrahydro-5H-pyrido[2,3-d]azepin-3-yl)-3-fluoro-4-methylbenzenesulfonamide] | 995 | 3.7 |
| COc1nc2c(cc1NS(=O)(=O)c1ccc(C3CCOC3)cc1)CCN(C)CC2 (stereo not shown) [Example 36, N-(2-methoxy-7-methyl-6,7,8,9-tetrahydro-5H-pyrido[2,3-d]azepin-3-yl)-4-(tetrahydrofuran-3-yl)benzenesulfonamide] | 260 | 3.29 |
| COc1nc2c(cc1NS(=O)(=O)c1ccc(O[C@@H]3CCOC3)cc1)CCN(C)CC2 [Example 37, N-(2-methoxy-7-methyl-6,7,8,9-tetrahydro-5H-pyrido[2,3-d]azepin-3-yl)-4-[(3R)-tetrahydrofuran-3-yloxy]benzenesulfonamide] | 260 | 3.21 |
| COc1nc2c(cc1NS(=O)(=O)c1ccc([C@H]3CC[C@H](OC)CC3)cc1)CCN(C)CC2 [Example 38, 4-(trans-4-methoxycyclohexyl)-N-(2-methoxy-7-methyl-6,7,8,9-tetrahydro-5H-pyrido[2,3-d]azepin-3-yl)benzenesulfonamide] | 339 | 2.93 |
| CCN1CCc2cc(NS(=O)(=O)c3ccc([C@@H]4CCCCO4)c(F)c3)c(OC)nc2CC1 [Example 43, N-(7-ethyl-2-methoxy-6,7,8,9-tetrahydro-5H-pyrido[2,3-d]azepin-3-yl)-3-fluoro-4-[(2S)-tetrahydro-2H-pyran-2-yl]benzenesulfonamide] | 131 | 1.79 |
| COc1nc2c(cc1NS(=O)(=O)c1ccc(C(C)C)cc1)CCN(CCCF)CC2 [Example 44, N-[7-(3-fluoropropyl)-2-methoxy-6,7,8,9-tetrahydro-5H-pyrido[2,3-d]azepin-3-yl]-4-(propan-2-yl)benzenesulfonamide] | 162 | 2.25 |
| COc1nc2c(cc1NS(=O)(=O)c1ccc(C3CCCCC3)cc1)CCN(C)CC2 [Example 45, 4-cyclohexyl-N-(2-methoxy-7-methyl-6,7,8,9-tetrahydro-5H-pyrido[2,3-d]azepin-3-yl)benzenesulfonamide] | 3.2 | 0.32 |
| COc1nc2c(cc1NS(=O)(=O)c1ccc(OC3CCCC3)cc1)CCN(C)CC2 [Example 46, 4-(cyclopentyloxy)-N-(2-methoxy-7-methyl-6,7,8,9-tetrahydro-5H-pyrido[2,3-d]azepin-3-yl)benzenesulfonamide] | 3.21 | 0.48 |
| COc1nc2c(cc1NS(=O)(=O)c1ccc(C(F)(F)C3CCCC3)nc1)CCN(C)CC2 [Example 47, 6-[cyclopentyl(difluoro)methyl]-N-(2-methoxy-7-methyl-6,7,8,9-tetrahydro-5H-pyrido[2,3-d]azepin-3-yl)pyridine-3-sulfonamide] | 176 | 2.33 |
| CCO[C@H]1C[C@@](F)(c2ccc(S(=O)(=O)Nc3cc4c(nc3OC)CCN(CC)CC4)cc2)C1 [Example 48, 4-(trans-3-ethoxy-1-fluorocyclobutyl)-N-(7-ethyl-2-methoxy-6,7,8,9-tetrahydro-5H-pyrido[2,3-d]azepin-3-yl)benzenesulfonamide] | 933 | 7.25 |
| CCCN1CCc2cc(NS(=O)(=O)c3ccc(C(C)C)cc3)c(OC)nc2CC1 [Example 49, N-(2-methoxy-7-propyl-6,7,8,9-tetrahydro-5H-pyrido[2,3-d]azepin-3-yl)-4-(propan-2-yl)benzenesulfonamide] | 102 | 0.88 |
| CCCN1CCc2cc(NS(=O)(=O)c3ccc(OCC)cc3)c(OC)nc2CC1 [Example 50, 4-ethoxy-N-(2-methoxy-7-propyl-6,7,8,9-tetrahydro-5H-pyrido[2,3-d]azepin-3-yl)benzenesulfonamide] | 337 | 3.2 |
| CCN1CCc2cc(NS(=O)(=O)c3ccc(C(C)C)cc3)c(OC)nc2CC1 [Example 51, N-(7-ethyl-2-methoxy-6,7,8,9-tetrahydro-5H-pyrido[2,3-d]azepin-3-yl)-4-(propan-2-yl)benzenesulfonamide] | 105 | 1.12 |
| CCOc1ccc(S(=O)(=O)Nc2cc3c(nc2OC)CCN(CC)CC3)cc1 [Example 52, 4-ethoxy-N-(7-ethyl-2-methoxy-6,7,8,9-tetrahydro-5H-pyrido[2,3-d]azepin-3-yl)benzenesulfonamide] | 435 | 2.56 |
| CCN1CCc2cc(NS(=O)(=O)c3ccc(C)cc3)c(OC)nc2CC1 [Example 53, N-(7-ethyl-2-methoxy-6,7,8,9-tetrahydro-5H-pyrido[2,3-d]azepin-3-yl)-4-methylbenzenesulfonamide] | 313 | 2.75 |
| COc1nc2c(cc1NS(=O)(=O)c1ccc(C(C)C)cc1)CCN(C)CC2 [Example 54, N-(2-methoxy-7-methyl-6,7,8,9-tetrahydro-5H-pyrido[2,3-d]azepin-3-yl)-4-(propan-2-yl)benzenesulfonamide] | 14.4 | 0.38 |
| COc1nc2c(cc1NS(=O)(=O)c1ccc(C3(C(F)(F)F)CC3)cc1)CCN(C)CC2 [Example 55, N-(2-methoxy-7-methyl-6,7,8,9-tetrahydro-5H-pyrido[2,3-d]azepin-3-yl)-4-[1-(trifluoromethyl)cyclopropyl]benzenesulfonamide] | 29.1 | 0.52 |
| CCN1CCc2nc(OC)c(NS(=O)(=O)c3ccc(C(C)C)cc3)cc2C(C)C1 (stereo not shown) [Example 56, N-(7-ethyl-2-methoxy-5-methyl-6,7,8,9-tetrahydro-5H-pyrido[2,3-d]azepin-3-yl)-4-(propan-2-yl)benzenesulfonamide] | 162 | 2.12 |
| CCN1CCc2cc(NS(=O)(=O)c3ccc(C4CCOCC4)cc3)c(OC)nc2CC1 [Example 57, N-(7-ethyl-2-methoxy-6,7,8,9-tetrahydro-5H-pyrido[2,3-d]azepin-3-yl)-4-(tetrahydro-2H-pyran-4-yl)benzenesulfonamide] | 229 | 3.14 |
